Measured values from US7820665B2, “Imidazopyridazine inhibitors of PI3 kinase for cancer treatment” (Amgen Inc., priority 2007, dated 2010).

Experiments:
PI3Kα = biological target: T1, PI3Kα (Homo sapiens, UniProt P42336); assay: In vitro PI3 kinase enzyme assay (PI3K ATPLoss); assay type: biochemical; details: recombinant p110α/p85, residual ATP by bioluminescence
T1 construct: Full length p110 subunits of PI3K α, β and δ, N-terminally labeled with polyHis tag; polyHis (N); made in house; host or cells: Sf9 insect cells (baculovirus)
Description: Full length p110 subunits of PI3K α, β and δ, N-terminally labeled with polyHis tag, can be co-expressed with p85 with Baculo virus expression vectors in sf9 insect cells. P110/p85 heterodimers can be purified by sequential Ni-NTA, Q-HP, Superdex-100 chromatography. Purified α, β and δ isozymes can be stored at −20° C. in 20 mM Tris, pH 8, 0.2M NaCl, 50% glycerol, 5 mM DTT, 2 mM Na cholate. Truncated PI3Kγ, residues 114-1102, N-terminally labeled with polyHis tag, can be expressed with Baculo virus in Hi5 insect cells. The γ isozyme can be purified by sequential Ni-NTA, Superdex-200, Q-HP chromatography. The γ isozyme can be stored frozen at −80° C. in NaH2PO4, pH 8, 0.2M NaCl, 1% ethylene glycol, 2 mM β-mercaptoethanol.
PI3K enzyme assays (alpha, beta, delta and gamma) can be performed in 25 μL with the above final concentrations of components in white polyproplyene plates. Phosphatidyl inositol phosphoacceptor, PtdIns(4,5)P2 (e.g. P4508) can be obtained from Echelon Biosciences, Salt Lake City, Utah. The ATPase activity of the alpha and gamma isozymes may not be greatly stimulated by PtdIns(4,5)P2 under these conditions, it can be omitted from the assay of these isozymes. Test compounds can be dissolved in DMSO and diluted with three-fold serial dilutions. The compound in DMSO (1 μL) may be added per test well, and the inhibition relative to reactions containing no compound, with and without enzyme can be determined. After assay incubation at RT, the reaction can be stopped and residual ATP can be determined by addition of an equal volume of a commercial ATP bioluminescence kit (Perkin Elmer EasyLite, Perkin Elmer, Waltham, Mass.) according to the manufacturer's instructions, and detected using an Analyst GT luminometer.

[1] = tested on: phosphorylation of Akt at Serine 473 in U87 MG cells; assay: pAkt AlphaScreen (U87 Cell); assay type: cell-based; details: Homo sapiens, U-87 MG, 2 h, 2 h compound, pAkt Ser473 AlphaScreen
Description: The pAkt AlphaScreen® assay (PerkinElmer, Waltham, Mass.) determines whether there is phosphorylation of Akt at Serine 473 by recruitment of a phosphospecific antibody. This assay was performed using U87 MG cells. The U87 growth media consists of MEM (Gibco, Carlsbad, Calif.) supplemented with 10% FBS (Gibco), 1× Non-Essential Amino Acids (Gibco) and 1× Penicillin/Streptomycin/Glutamine (Gibco). The cells were maintained weekly using 0.05% Trypsin (Gibco) and replated in 150 mm TC-Treated Culture Dishes (Corning, Corning, N.Y.).
The first day of the assay, the adherent cells were trypsinized, media was added to the loose cells and cells were mixed to a homogenous mixture. 0.5 ml of the homogenous mixture was counted on the Beckman Coulter® Vi-CELL™ XR (Fullerton, Calif.). 50 frames of cells were counted and the number of viable cells was determined. The cells were then diluted to 0.25 million cells per ml, and centrifuged at 200 rcf for 5 minutes. The media was removed and the cells were reconstituted in fresh media for plating. The cells were plated at 20 μl per well on the PerkinElmer® Flexprop PLUS in Low Volume 384 Well White Tissue Culture Plates (Corning) with a final cell density of 5K cells per well. The plates were incubated overnight at 37° Celsius, 5% CO2.
On the second day, the compound plates were prepared, the cells were treated with compound and the pAkt reaction mix was added to the cell lysate. 384 well compound plates were prepared containing 1 μl of compound per well starting at 5 mM and diluted 1:2 across the row, resulting in a 22 well serial dilution. 39 μl of growth media was added to the compound plate in rows 1-22 using the PerkinElmer® FlexDrop PLUS resulting in a DMSO concentration of 2.5%. The cell plates and diluted compound plates were put onto the VELOCITY11™ VPREP™ 384 ST where the compound plate was mixed and 5 μl of serially diluted compound or controls was added to the cell plate. The final concentration of the compounds was 25 μM serially diluted to 11.9 pM in 0.5% DMSO. The cell plates were then incubated with compound for two hours at 37° Celsius, 5% CO2. After two hours, the media in the cell plates was aspirated using the BioTek® ELx405HT plate washer (Winooski, Vt.) removing the majority of media and compound without disturbing the adherent U87 cells. The following assay reagents are components of the SureFire® Akt (Ser 473) Phosphorylation 50K Point Kit (TGR BioSciences, Adelaide, Australia) and an IgG Detection Kit (PerkinElmer, Waltham, Mass.). 5 μl of 1× Lysis Buffer was added to each well using the PerkinElmer® FlexDrop PLUS. The plates were then incubated at room temperature on a shaker for ten minutes. The AlphaScreen® reaction was prepared under low light conditions (subdued or green light) including p-Akt (Ser 473) Reaction Buffer, Dilution Buffer, Activation Buffer, Acceptor Beads and Donor Beads at a ratio of 40:20:10:1:1 respectively. The AlphaScreen® reaction was added to the cell lysate at 6 μl per well using the PerkinElmer® FlexDrop PLUS. The plates were placed in a humid environment to reduce edge effects and incubated overnight at room temperature with restricted air flow in the dark.
On the final day of the experiment, the plates were read on the PerkinElmer® EnVision™ 2103 Multilable Reader using the standard AlphaScreen® readout. The POC is calculated and the data is analyzed to report the IC50 IP for pAkt at Serine 473.

T1 sequence (P42336 whole entry, species assumed): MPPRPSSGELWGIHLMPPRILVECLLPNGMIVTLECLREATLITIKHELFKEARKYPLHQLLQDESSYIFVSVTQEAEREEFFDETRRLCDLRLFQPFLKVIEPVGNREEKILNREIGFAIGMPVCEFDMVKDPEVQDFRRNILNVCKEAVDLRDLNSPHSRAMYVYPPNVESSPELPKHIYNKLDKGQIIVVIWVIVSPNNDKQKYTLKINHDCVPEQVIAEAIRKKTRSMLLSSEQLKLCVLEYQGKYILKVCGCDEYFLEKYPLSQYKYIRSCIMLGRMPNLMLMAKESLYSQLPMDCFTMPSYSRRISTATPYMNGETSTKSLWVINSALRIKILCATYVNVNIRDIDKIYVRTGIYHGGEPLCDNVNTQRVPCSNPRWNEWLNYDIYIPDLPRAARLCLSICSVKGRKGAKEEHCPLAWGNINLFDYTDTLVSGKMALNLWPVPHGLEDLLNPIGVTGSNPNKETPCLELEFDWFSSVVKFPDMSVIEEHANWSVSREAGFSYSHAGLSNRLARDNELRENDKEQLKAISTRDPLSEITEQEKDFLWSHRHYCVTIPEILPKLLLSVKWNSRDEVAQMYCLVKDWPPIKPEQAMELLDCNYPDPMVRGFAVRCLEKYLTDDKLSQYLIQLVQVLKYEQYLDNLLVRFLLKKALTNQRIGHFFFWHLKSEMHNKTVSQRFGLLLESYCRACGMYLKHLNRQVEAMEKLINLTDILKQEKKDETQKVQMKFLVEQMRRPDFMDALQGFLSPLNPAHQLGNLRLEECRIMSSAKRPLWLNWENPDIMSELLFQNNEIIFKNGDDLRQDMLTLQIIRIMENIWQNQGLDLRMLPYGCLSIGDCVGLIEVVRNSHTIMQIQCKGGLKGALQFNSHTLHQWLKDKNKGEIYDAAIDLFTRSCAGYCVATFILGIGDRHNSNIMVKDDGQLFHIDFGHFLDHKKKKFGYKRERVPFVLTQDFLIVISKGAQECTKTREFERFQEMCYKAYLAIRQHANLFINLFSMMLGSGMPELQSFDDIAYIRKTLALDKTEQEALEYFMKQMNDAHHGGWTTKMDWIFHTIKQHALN
T1 sequence (P27986 whole entry partner, species assumed): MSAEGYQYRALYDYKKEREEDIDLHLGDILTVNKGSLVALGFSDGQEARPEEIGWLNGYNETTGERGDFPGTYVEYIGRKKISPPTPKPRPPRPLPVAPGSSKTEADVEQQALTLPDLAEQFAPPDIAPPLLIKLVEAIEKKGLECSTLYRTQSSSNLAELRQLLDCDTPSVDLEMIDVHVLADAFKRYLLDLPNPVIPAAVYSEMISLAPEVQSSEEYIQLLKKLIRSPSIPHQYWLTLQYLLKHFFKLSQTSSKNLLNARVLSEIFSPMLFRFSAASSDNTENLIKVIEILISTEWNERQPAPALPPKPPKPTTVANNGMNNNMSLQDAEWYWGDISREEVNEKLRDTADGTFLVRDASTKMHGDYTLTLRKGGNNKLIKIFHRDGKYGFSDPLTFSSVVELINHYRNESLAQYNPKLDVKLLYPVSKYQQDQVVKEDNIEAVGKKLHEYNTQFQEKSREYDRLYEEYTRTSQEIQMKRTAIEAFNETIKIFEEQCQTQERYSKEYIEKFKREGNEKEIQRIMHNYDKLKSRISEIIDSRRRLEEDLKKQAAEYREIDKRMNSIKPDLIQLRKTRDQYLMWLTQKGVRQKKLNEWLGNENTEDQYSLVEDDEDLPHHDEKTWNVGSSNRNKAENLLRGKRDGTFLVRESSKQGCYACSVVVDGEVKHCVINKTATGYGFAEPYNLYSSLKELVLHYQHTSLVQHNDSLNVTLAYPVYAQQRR

Structure (SMILES)	IC50 (PI3Kα) [µM]	IC50 [1] [µM]
COc1ccc(-c2ccc3nc(NC(C)=O)cn3n2)cc1OC [Example 43, N-(6-(3,4-Dimethoxyphenyl)imidazo[1,2-b]pyridazin-2-yl)acetamide]	0.044	0.242
Nc1nc2ccc(-c3cnc(Cl)c(NS(=O)(=O)c4cccc(OC(F)F)c4)c3)nn2c1-c1ccncc1 [Example 45, N-(5-(2-Amino-3-(pyridin-4-yl)imidazo[1,2-b]pyridazin-6-yl)-2-chloropyridin-3-yl)-3-(difluoromethoxy)benzenesulfonamide]		0.027
CC(=O)Nc1nc2ccc(-c3cnc(Cl)c(NS(C)(=O)=O)c3)nn2c1-c1ccncc1 [Example 26, N-(6-(6-Chloro-5-(methylsulfonamido)pyridin-3-yl)-3-(pyridin-4-yl)imidazo[1,2-b]pyridazin-2-yl)acetamide]	0.009	6.53
CC(=O)Nc1nc2ccc(-c3cnc(Cl)c(NS(=O)(=O)c4cccc(OC(F)F)c4)c3)nn2c1-c1ccnc(C)c1 [Example 46, N-(6-(6-Chloro-5-(3-(difluoromethoxy)phenylsulfonamido)pyridin-3-yl)-3-(2-methylpyridin-4-yl)imidazo[1,2-b]pyridazin-2-yl)acetamide]		5.79
CC(=O)Nc1cn2cc(-c3cncc(N)c3)ccc2n1 [Example 14, N-(6-(5-Aminopyridin-3-yl)H-imidazo[1,2-a]pyridin-2-yl)acetamide]	0.214	
CC(=O)Nc1nc2ccc(-c3cnc(Cl)c(NS(C)(=O)=O)c3)nn2c1I [Example 21, N-(6-(6-Chloro-5-(methylsulfonamido)pyridin-3-yl)-3-iodoimidazo[1,2-b]pyridazin-2-yl)acetamide]	0.033	2.19
CC(=O)Nc1cn2cc(-c3cncc(NCCC(C)(C)C)c3)ccc2n1 [Example 18, N-(6-(5-(3,3-Dimethylbutylamino)pyridin-3-yl)H-imidazo[1,2-a]pyridin-2-yl)acetamide]	0.211	
Cc1cc(-c2c(N)nc3ccc(-c4cnc(Cl)c(NS(=O)(=O)c5cccc(OC(F)F)c5)c4)nn23)ccn1 [Example 47, N-(5-(2-Amino-3-(2-methylpyridin-4-yl)imidazo[1,2-b]pyridazin-6-yl)-2-chloropyridin-3-yl)-3-(difluoromethoxy)benzenesulfonamide]		0.014
CC(=O)Nc1cn2nc(-c3ccnc(F)c3)ccc2n1 [Example 3, N-(6-(2-Fluoropyridin-4-yl)imidazo[1,2-b]pyridazin-2-yl)acetamide]	0.782	
CC(=O)Nc1cn2cc(-c3ccnc(Cl)n3)ccc2n1 [Example 53, N-(6-(2-Chloropyrimidin-4-yl)H-imidazo[1,2-a]pyridin-2-yl)acetamide]	1.86	
COc1cc(-c2ccc3nc(NC(C)=O)cn3n2)cnc1OC [Example 20, N-(6-(5,6-Dimethoxypyridin-3-yl)imidazo[1,2-b]pyridazin-2-yl)acetamide]	0.014	0.115
CS(=O)(=O)Nc1cc(-c2ccc3nc(N)c(-c4cccc(F)c4)n3n2)cnc1Cl [Example 23, N-(5-(2-Amino-3-(3-fluorophenyl)imidazo[1,2-b]pyridazin-6-yl)-2-chloropyridin-3-yl)methanesulfonamide]	0.102	0.055
CC(=O)Nc1nc2ccc(-c3cnc(Cl)c(NS(C)(=O)=O)c3)nn2c1-c1ccc(F)c(C(=O)N2CCOCC2)c1 [Example 24, N-(6-(6-chloro-5-(methylsulfonamido)pyridin-3-yl)-3-(4-fluoro-3-(morpholine-4-carbonyl)phenyl)imidazo[1,2-b]pyridazin-2-yl)acetamide]	0.093	≥ 25
CC(=O)Nc1cn2nc(-c3cccc(NS(=O)(=O)c4cccc5cnccc45)c3)ccc2n1 [Example 6, N-(6-(3-(Isoquinoline-5-sulfonamido)phenyl)imidazo[1,2-b]pyridazin-2-yl)acetamide]	0.096	
CS(=O)(=O)Nc1cc(-c2ccc3nc(N)c(-c4ccc(F)c(C(=O)O)c4)n3n2)cnc1Cl [Example 25, 5-(2-Amino-6-(6-chloro-5-(methylsulfonamido)pyridin-3-yl)imidazo[1,2-b]pyridazin-3-yl)-2-fluorobenzoic acid]	1.17	≥ 25
CC(=O)Nc1cn2nc(-c3cccc(N)c3)ccc2n1 [Example 5, N-(6-(3-Aminophenyl)imidazo[1,2-b]pyridazin-2-yl)acetamide]	0.982	
Nc1cn2cc(-c3cnc(Cl)c(NS(=O)(=O)c4ccc(F)cc4)c3)ccc2n1 [Example 29, N-(5-(2-Aminoimidazo[1,2-a]pyridin-6-yl)-2-chloropyridin-3-yl)-4-fluorobenzenesulfonamide]	0.064	
CC(=O)Nc1nc2ccc(-c3cnc(Cl)c(NS(=O)(=O)c4cccc(OC(F)F)c4)c3)nn2c1-c1cccnc1 [Example 49, N-(6-(6-Chloro-5-(3-(difluoromethoxy)phenylsulfonamido)pyridin-3-yl)-3-(pyridin-3-yl)imidazo[1,2-b]pyridazin-2-yl)acetamide]		3.9
Nc1nc2ccc(-c3cnc(Cl)c(NS(=O)(=O)c4cccc(OC(F)F)c4)c3)nn2c1-c1cccnc1 [Example 50, N-(5-(2-Amino-3-(pyridin-3-yl)imidazo[1,2-b]pyridazin-6-yl)-2-chloropyridin-3-yl)-3-(difluoromethoxy)benzenesulfonamide]		0.118
Nc1nc2ccc(-c3cnc(Cl)c(NS(=O)(=O)c4cccc(OC(F)F)c4)c3)nn2c1C1=CCNCC1 [Example 51, N-(5-(2-Amino-3-(1,2,3,6-tetrahydropyridin-4-yl)imidazo[1,2-b]pyridazin-6-yl)-2-chloropyridin-3-yl)-3-(difluoromethoxy)benzenesulfonamide]		0.439
CC(=O)Nc1nc2ccc(-c3cnc(Cl)c(NS(=O)(=O)c4ccc(F)cc4)c3)nn2c1-c1ccncc1 [Example 48, N-(6-(6-Chloro-5-(4-fluorophenylsulfonamido)pyridin-3-yl)-3-(pyridin-4-yl)imidazo[1,2-b]pyridazin-2-yl)acetamide]		0.018
CC(=O)Nc1nc2ccc(-c3cnc(Cl)c(NS(=O)(=O)c4cccc(OC(F)F)c4)c3)nn2c1-c1ccncc1 [Example 44, N-(6-(6-Chloro-5-(3-(difluoromethoxy)phenylsulfonamido)pyridin-3-yl)-3-(pyridin-4-yl)imidazo[1,2-b]pyridazin-2-yl)acetamide]		7.48
